In PMC7795354, “Development of Radiogallium-Labeled Peptides for Platelet-Derived Growth Factor Receptor β (PDGFRβ) Imaging: Influence of Different Linkers” (Molecules, 2020):
Where “and” joins values, the source holds several entries; their conditions need not be identical. Identical values can stand only once. Like-named read-outs stand apart in the source and are kept apart here. Where a SMILES comes first, the peptide text is derived from it. The star is where a group is joined. DOTA = O=C(O)CN1CCN(CC(=O)O)CCN(CC(=O)*)CCN(CC(=O)O)CC1; AEEA = NCCOCCOCC(=O)O

Assays:
[1] = Biodistribution in BxPC3-luc tumor-bearing mice; assay type: in vivo; settings: female, BALB/c nu/nu, mouse, stomach, iv, 74 kBq, total radioactivity; 1 h post-injection
[2] = In vitro stability in murine plasma; settings: 37 °C
Experimental: (§3) Briefly, the solution of radiotracers (37 kBq/well, 50 µL) in a sealed tube containing 0.1 M PBS pH 7.4 (450 µL) was incubated at 37 °C for 24 h. At 3 and 24 h after incubation, the purity of radiotracers was analyzed by RP-HPLC. Meanwhile, for stability assay in murine plasma, radiotracers were mixed in murine plasma at a ratio of 1:10. After incubation at 37 °C for 10 min and 1 h, an equivalent amount of ice-cold acetonitrile was added. After centrifugation at 1000× g at 4 °C for 10 min, the supernatant was filtered through a 0.45-µm filter followed by analyzing using RP-HPLC as described above. Then, the radiochemical purities were determined.

[3] = Octanol-water partition coefficient (log P), shake-flask; settings: n-octanol/PBS, pH 7.4
Experimental: The octanol-water partition coefficients for radiotracers were determined via the assessment of their distribution in n-octanol and PBS (pH 7.4) using shake-flask method as described previously [48]. Radioactivity of each layer was measured using auto well gamma counter (n = 4).

[4] = In vitro stability in PBS pH 7.4; settings: 37 °C, 0.1 M PBS pH 7.4
Experimental: as §3

[5] = Biodistribution in BxPC3-luc tumor-bearing mice; assay type: in vivo, BALB/c nu/nu mice; settings: female, BALB/c nu/nu, iv, total radioactivity
Experimental: (§1) All animal handling procedures were approved by the Kanazawa University Animal Care Committee. Experiments with animals were conducted in accordance with the Guidelines for the Care and Use of Laboratory Animals of Kanazawa University. The animals were housed with free access to food and water at 23 °C with a 12 h light/dark schedule. Four-week-old female BALB/c nu/nu mice (12–17 g) were purchased from Japan SLC Inc. (Hamamatsu, Japan). The tumor-bearing model was prepared by subcutaneous inoculation of 1 × 10^7 BxPC3-luc cells into left shoulder of female BALB/c nu/nu mice. The biodistribution experiment was performed approximately 4–5 weeks post-inoculation.
(§2) A saline solution of [^67Ga]27 or [^67Ga]28 (74 kBq, 100 µL) was injected intravenously into the tail vein of the mice. The mice were sacrificed at 10 min post-injection for [^67Ga]27 and 1 h post-injection for [^67Ga]27 or [^67Ga]28. For in vivo blocking studies, 100 μL of a mixed saline solution of [^67Ga]27 (74 kBq) and IPLPPPRRPFFK peptide (1 mg/mouse) was injected via tile vein into the tumor-bearing mice. The mice were sacrificed at 1 h post-injection. Tissues of interest were removed and weighed. The radioactivity of the tissues was determined using an auto well gamma counter, and counts were corrected for background radiation and physical decay during counting. The data were expressed as percent injected dose per gram tissue (%ID/g).

[6] = tested on: BxPC3-luc tumor-bearing mice; experiment: Biodistribution in BxPC3-luc tumor-bearing mice; assay type: in vivo, BALB/c nu/nu mice
Experimental: as §1, §2

Structure (SMILES): CC[C@H](C)[C@H](NC(=O)COCCOCCNC(=O)CN1CCN(CC(=O)O)CCN(CC(=O)O)CCN(CC(=O)O)CC1)C(=O)N1CCC[C@H]1C(=O)N[C@@H](CC(C)C)C(=O)N1CCC[C@H]1C(=O)N1CCC[C@H]1C(=O)N1CCC[C@H]1C(=O)N[C@@H](CCCNC(=N)N)C(=O)N[C@@H](CCCNC(=N)N)C(=O)N1CCC[C@H]1C(=O)N[C@@H](Cc1ccccc1)C(=O)N[C@@H](Cc1ccccc1)C(=O)N[C@@H](CCCCN)C(=O)O [[^67Ga]27, [^67Ga]Ga-DOTA-EG2-IPLPPPRRPFFK, metal not drawn] ({DOTA-AEEA}-IPLPPPRRPFFK-OH)
- tissue uptake dose at 1 h [1]: 0.06 %ID
- In vitro stability in murine plasma, percentage of remained intact radiotracer ([2]; 1 h, 60 min): 75.9 ± 1.2%
- remaining at 10 min ([2]; mouse, plasma, In vitro stability in murine plasma, percentage of remained intact radiotracer, 10 min): 84.4 ± 2%
- remaining at 1 h ([2]; mouse, plasma, In vitro stability in murine plasma, percentage of remained intact radiotracer, 1 h): > 75%
- logP [3]: < -4
- In vitro stability in PBS pH 7.4, percentage of remained intact radiotracer ([4]; 3 h): 96.9 ± 0.5%
- In vitro stability in PBS pH 7.4, percentage of remained intact radiotracer ([4]; 24 h): 95.6 ± 0.4%
- tissue uptake at 1 h ([5]; blood, 1 h, blocking: co-injection of IPLPPPRRPFFK 1 mg/mouse, read-out: Biodistribution, Blood): 0.93 %ID/g
- tissue uptake at 1 h ([5]; bone, 1 h, blocking: co-injection of IPLPPPRRPFFK 1 mg/mouse, read-out: Biodistribution, Bone): 0.21 %ID/g
- tissue uptake at 1 h ([5]; brain, 1 h, blocking: co-injection of IPLPPPRRPFFK 1 mg/mouse, read-out: Biodistribution, Brain): 0.02 %ID/g
- tissue uptake at 1 h ([5]; heart, 1 h, blocking: co-injection of IPLPPPRRPFFK 1 mg/mouse, read-out: Biodistribution, Heart): 0.28 %ID/g
- tissue uptake at 1 h ([5]; 1 h, blocking: co-injection of IPLPPPRRPFFK 1 mg/mouse, BxPC3-luc tumor, read-out: Biodistribution, Tumor): 0.96 %ID/g
- tissue uptake at 1 h ([5]; kidney, 1 h, blocking: co-injection of IPLPPPRRPFFK 1 mg/mouse, read-out: Biodistribution, Kidney): 12.2 %ID/g
- tissue uptake at 1 h ([5]; large intestine, 1 h, blocking: co-injection of IPLPPPRRPFFK 1 mg/mouse, read-out: Biodistribution, Large intestine): 0.25 %ID/g
- tissue uptake at 1 h ([5]; liver, 1 h, blocking: co-injection of IPLPPPRRPFFK 1 mg/mouse, read-out: Biodistribution, Liver): 0.27 %ID/g
- tissue uptake at 1 h ([5]; lung, 1 h, blocking: co-injection of IPLPPPRRPFFK 1 mg/mouse, read-out: Biodistribution, Lung): 0.66 %ID/g
- tissue uptake at 10 min ([5]; mouse, blood, 74 kBq, 10 min post-injection, i.v., read-out: Biodistribution, Blood): 3.87 %ID/g
- tissue uptake at 1 h ([5]; mouse, blood, 74 kBq, 1 h post-injection, i.v., read-out: Biodistribution, Blood): 0.15 %ID/g
- tissue uptake at 10 min ([5]; mouse, bone, 74 kBq, 10 min post-injection, i.v., read-out: Biodistribution, Bone): 1.62 %ID/g
- tissue uptake at 1 h ([5]; mouse, bone, 74 kBq, 1 h post-injection, i.v., read-out: Biodistribution, Bone): 0.24 %ID/g
- tissue uptake at 10 min ([5]; mouse, brain, 74 kBq, 10 min post-injection, i.v., read-out: Biodistribution, Brain): 0.13 %ID/g
- tissue uptake at 1 h ([5]; mouse, brain, 74 kBq, 1 h post-injection, i.v., read-out: Biodistribution, Brain): 0.01 %ID/g
- tissue uptake at 10 min ([5]; mouse, heart, 74 kBq, 10 min post-injection, i.v., read-out: Biodistribution, Heart): 1.47 %ID/g
- tissue uptake at 1 h ([5]; mouse, heart, 74 kBq, 1 h post-injection, i.v., read-out: Biodistribution, Heart): 0.07 %ID/g
- tissue uptake at 10 min ([5]; mouse, 74 kBq, 10 min post-injection, i.v., BxPC3-luc tumor, read-out: Biodistribution, Tumor): 3.11 %ID/g
- tissue uptake at 1 h ([5]; mouse, 74 kBq, 1 h post-injection, i.v., BxPC3-luc tumor, read-out: Biodistribution, Tumor): 0.39 %ID/g
- tissue uptake at 10 min ([5]; mouse, kidney, 74 kBq, 10 min post-injection, i.v., read-out: Biodistribution, Kidney): 13.9 %ID/g
- tissue uptake at 1 h ([5]; mouse, kidney, 74 kBq, 1 h post-injection, i.v., read-out: Biodistribution, Kidney): 3.07 %ID/g
- tissue uptake at 10 min ([5]; mouse, large intestine, 74 kBq, 10 min post-injection, i.v., read-out: Biodistribution, Large intestine): 0.87 %ID/g
- tissue uptake at 1 h ([5]; mouse, large intestine, 74 kBq, 1 h post-injection, i.v., read-out: Biodistribution, Large intestine): 0.13 %ID/g
- tissue uptake at 10 min ([5]; mouse, liver, 74 kBq, 10 min post-injection, i.v., read-out: Biodistribution, Liver): 0.9 %ID/g
- tissue uptake at 1 h ([5]; mouse, liver, 74 kBq, 1 h post-injection, i.v., read-out: Biodistribution, Liver): 0.22 %ID/g
- tissue uptake at 10 min ([5]; mouse, lung, 74 kBq, 10 min post-injection, i.v., read-out: Biodistribution, Lung): 3.7 %ID/g
- tissue uptake at 1 h ([5]; mouse, lung, 74 kBq, 1 h post-injection, i.v., read-out: Biodistribution, Lung): 0.46 %ID/g
- tissue uptake at 10 min ([5]; mouse, muscle, 74 kBq, 10 min post-injection, i.v., read-out: Biodistribution, Muscle): 0.86 %ID/g
- tissue uptake at 1 h ([5]; mouse, muscle, 74 kBq, 1 h post-injection, i.v., read-out: Biodistribution, Muscle): 0.07 %ID/g
- tissue uptake at 10 min ([5]; mouse, pancreas, 74 kBq, 10 min post-injection, i.v., read-out: Biodistribution, Pancreas): 0.89 %ID/g
- tissue uptake at 1 h ([5]; mouse, pancreas, 74 kBq, 1 h post-injection, i.v., read-out: Biodistribution, Pancreas): 0.13 %ID/g
- tissue uptake at 10 min ([5]; mouse, small intestine, 74 kBq, 10 min post-injection, i.v., read-out: Biodistribution, Small intestine): 1.16 %ID/g
- tissue uptake at 1 h ([5]; mouse, small intestine, 74 kBq, 1 h post-injection, i.v., read-out: Biodistribution, Small intestine): 0.63 %ID/g
- tissue uptake at 10 min ([5]; mouse, spleen, 74 kBq, 10 min post-injection, i.v., read-out: Biodistribution, Spleen): 0.99 %ID/g
- tissue uptake at 1 h ([5]; mouse, spleen, 74 kBq, 1 h post-injection, i.v., read-out: Biodistribution, Spleen): 0.13 %ID/g
- tissue uptake dose at 10 min ([5]; mouse, stomach, 74 kBq, 10 min post-injection): 0.19 %ID
- tissue to tissue ratio at 10 min ([5]; mouse, tumor/blood, 74 kBq, 10 min post-injection): 0.81
- tissue to tissue ratio at 1 h ([5]; mouse, tumor/blood, 74 kBq, 1 h post-injection): 2.61
- tissue uptake at 1 h ([5]; muscle, 1 h, blocking: co-injection of IPLPPPRRPFFK 1 mg/mouse, read-out: Biodistribution, Muscle): 0.22 %ID/g
- tissue uptake at 1 h ([5]; pancreas, 1 h, blocking: co-injection of IPLPPPRRPFFK 1 mg/mouse, read-out: Biodistribution, Pancreas): 0.21 %ID/g
- tissue uptake at 1 h ([5]; small intestine, 1 h, blocking: co-injection of IPLPPPRRPFFK 1 mg/mouse, read-out: Biodistribution, Small intestine): 0.66 %ID/g
- tissue uptake at 1 h ([5]; spleen, 1 h, blocking: co-injection of IPLPPPRRPFFK 1 mg/mouse, read-out: Biodistribution, Spleen): 0.29 %ID/g
- tissue uptake dose at 1 h ([5]; stomach, 1 h, blocking: co-injection of IPLPPPRRPFFK 1 mg/mouse): 0.05 %ID
- tissue to tissue ratio at 1 h ([5]; tumor/blood, 1 h, blocking: co-injection of IPLPPPRRPFFK 1 mg/mouse): 1.19
- Tumor/Blood ratio ([6]; 1 h, blocking: co-injection of IPLPPPRRPFFK 1 mg/mouse): significantly decreased
- Tumor/Blood ratio ([6]; 1 h post-injection, i.v.): 2.61 and 2.61 ± 0.75
